# Earlier results as cited in US20070292887A1, “Immunohistochemical Methods” (Bayer Pharmaceuticals Corporation, priority 2003, published 2007).
# Like-named read-outs stand apart in the source and are kept apart here.
# Assays:
# [1] = test system: SKOV (human ovarian cancer) cells; details: preincubation of SKOV cells
# MDA-MB-231 xenografts = MDA-MB-231 xenografts in mice
# SKOV3 xenografts = SKOV3 xenografts in mice
# human cancer cell lines [2] = details: in vivo
# human cancer cell lines [3] = details: in vitro
# [4] = test system: keratinocytes (normal skin); details: biopsies of normal skin prior to and following administration, humans
structure (smiles),measurement,setting,value
COc1cc2ncnc(Nc3ccc(F)c(Cl)c3)c2cc1OCCCN1CCOCC1 [ZD1839],EGF-induced increases in activation of ERK MAP kinases,[1],block
same,EGF-induced increases in activation of PKB/Akt,[1],block
same,constitutive ERK MAP kinase activation,MDA-MB-231 xenografts,inhibition
same,tumor growth rates,MDA-MB-231 xenografts,reductions in tumor growth rates
same,constitutive ERK MAP kinase activation,SKOV3 xenografts,inhibition
same,tumor growth rates,SKOV3 xenografts,reductions in tumor growth rates
same,proliferation of human cancer cell lines,human cancer cell lines [2],inhibited the proliferation
same,proliferation of human cancer cell lines,human cancer cell lines [3],inhibited the proliferation
same,expression of Ki-67 in keratinocytes,[4],decreased expression
same,expression of activated MAPK in keratinocytes,[4],decreased expression
